Assay results: US10344025B2, “GLS1 inhibitors for treating disease” (Board of Regents, The University of Texas System, priority 2014, dated 2019)
pEC50, pIC50: −log10 of the molar value.

How the values were obtained:
[1] = molecular target: purified recombinant human GAC (GLS1) (Homo sapiens (Human), UniProt O94925); test: GLS1 Enzymatic Activity Assay (dual-coupled enzymatic assay, resorufin/Amplex UltraRed readout); assay type: biochemical;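 also: glutamate from GAC coupled via glutamate oxidase and peroxidase to resorufin, read as fluorescence (ex 530, em 590 nm) kinetically or at 20 min, four-parameter logistic IC50 fit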
Chain of purified recombinant human GAC (GLS1) (O94925 other isoform, or with tags, fused parts or gaps): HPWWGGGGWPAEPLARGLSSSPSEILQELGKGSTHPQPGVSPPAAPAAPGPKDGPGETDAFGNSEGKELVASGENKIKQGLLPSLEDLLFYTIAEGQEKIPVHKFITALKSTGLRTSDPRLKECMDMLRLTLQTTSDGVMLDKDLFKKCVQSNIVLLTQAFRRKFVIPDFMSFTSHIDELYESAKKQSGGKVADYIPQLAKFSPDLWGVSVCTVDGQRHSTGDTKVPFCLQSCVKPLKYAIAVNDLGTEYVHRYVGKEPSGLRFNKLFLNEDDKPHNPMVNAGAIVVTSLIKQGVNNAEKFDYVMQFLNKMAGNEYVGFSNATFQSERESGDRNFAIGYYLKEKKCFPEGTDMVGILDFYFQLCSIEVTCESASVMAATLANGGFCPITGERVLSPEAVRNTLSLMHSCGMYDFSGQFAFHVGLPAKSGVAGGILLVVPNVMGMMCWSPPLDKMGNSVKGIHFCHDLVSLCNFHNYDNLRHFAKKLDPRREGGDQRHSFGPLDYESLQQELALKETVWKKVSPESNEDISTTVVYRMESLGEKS

A549 cells = test: Proliferation Assay (A549 viability, Cell Titer Fluor, 72 hours); assay type: cell-based; details: Homo sapiens, A549, 72 h
Outline: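 Cell Titer Fluor fluorescence after 72 h compound treatment (0.5% DMSO, 37 °C, 5% CO2) of A549 cells plated 24 h earlier at 1000/well. Four-parameter logistic fitting gave IC50.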

pIC50 [1] | pEC50 (A549 cells) | SMILES
> 7.00 | 6.30 to 7.00 | O=C(Cc1cccc(OC(F)(F)F)c1)Nc1cn(CCCCn2cc(C(=O)NCc3cccnc3)nn2)nn1 [Example 307, N-(pyridin-3-ylmethyl)-1-[4-(4-{2-[3-(trifluoromethoxy)phenyl]acetamido}-1H-1,2,3-triazol-1-yl)butyl]-1H-1,2,3-triazole-4-carboxamide]
> 7.00 | > 7.00 | O=C(NCc1cncc(C(F)(F)F)c1)c1cn(CCC(F)Cn2cc(C(=O)NCc3cc(C(F)(F)F)ccn3)nn2)nn1 (centres unmarked) [Example 476, 1-{2-fluoro-4-[4-({[5-(trifluoromethyl)pyridin-3-yl]methyl}carbamoyl)-1H-1,2,3-triazol-1-yl]butyl}-N-{[4-(trifluoromethyl)pyridin-2-yl]methyl}-1H-1,2,3-triazole-4-carboxamide]
> 7.00 | > 7.00 | O=C(NCc1ccc(C(F)(F)F)cn1)c1cn(CC(F)CCc2nnc(C(=O)NCc3cccc(OC(F)(F)F)c3)s2)nn1 (centres unmarked) [Example 445, 5-{3-fluoro-4-[4-({[5-(trifluoromethyl)pyridin-2-yl]methyl}carbamoyl)-1H-1,2,3-triazol-1-yl]butyl}-N-{[3-(trifluoromethoxy)phenyl]methyl}-1,3,4-thiadiazole-2-carboxamide]
> 7.00 | > 7.00 | O=C(Cc1cc(C2CC2)ccn1)Nc1nnc(CCC(F)Cn2cc(C(=O)NCc3cncc(C(F)(F)F)c3)nn2)s1 (centres unmarked) [Example 580, 1-(4-(5-(2-(4-cyclopropylpyridin-2-yl)acetamido)-1,3,4-thiadiazol-2-yl)-2-fluorobutyl)-N-((5-(trifluoromethyl)pyridin-3-yl)methyl)-1H-1,2,3-triazole-4-carboxamide]
6.30 to 7.00 | 5.30 to 6.30 | CNC(=O)c1cn(CCC(F)Cn2cc(C(=O)NCc3cncc(C(F)(F)F)c3)nn2)nn1 (centres unmarked) [Example 151, 1-{3-fluoro-4-[4-({[5-(trifluoromethyl)pyridin-3-1-yl]methyl}carbamoyl)-1H-1,2,3-triazol-1-yl]butyl}-N-methyl-1H-1,2,3-triazole-4-carboxamide]
> 7.00 | > 7.00 | O=C(NCc1cc(C(F)(F)F)ccn1)c1cn(CC(F)CCc2nnc(C(=O)NCc3cc(C(F)(F)F)ccn3)s2)nn1 (centres unmarked) [Example 520, 5-{3-fluoro-4-[4-({[4-(trifluoromethyl)pyridin-2-yl]methyl}carbamoyl)-1H-1,2,3-triazol-1-yl]butyl}-N-{[4-(trifluoromethyl)pyridin-2-yl]methyl}-1,3,4-thiadiazole-2-carboxamide]
> 7.00 | 6.30 to 7.00 | O=C(Cc1ccccc1)Nc1nnc(CCCCn2cc(C(=O)NCc3ccccc3)nn2)s1 [Example 15, N-benzyl-1-{4-[5-(2-phenylacetamido)-1,3,4-thiadiazol-2-yl]butyl}-1H-1,2,3-triazole-4-carboxamide]
> 7.00 | 6.30 to 7.00 | NC(=O)c1cn(CCCCc2ccc(NC(=O)Cc3cccc(OC(F)(F)F)c3)nn2)nn1 [Example 596, 1-(4-(6-(2-(3-(trifluoromethoxy)phenyl)acetamido)pyridazin-3-yl)butyl)-1H-1,2,3-triazole-4-carboxamide]
> 7.00 | 6.30 to 7.00 | CC(=O)Nc1ccc(CCCCn2cc(C(=O)NCc3cc(C(F)(F)F)ccn3)nn2)nn1 [Example 175, 1-[4-(6-acetamidopyridazin-3-yl)butyl]-N-{[4-(trifluoromethyl)pyridin-2-yl]methyl}-1H-1,2,3-triazole-4-carboxamide]
> 7.00 | > 7.00 | O=C(NCc1cncc(C(F)(F)F)c1)c1cn(CCCCn2cc(C(=O)NCc3cncc(C(F)(F)F)c3)nn2)nn1 [Example 140, N-{[5-(trifluoromethyl)pyridin-3-yl]methyl}-1-{4-[4-({[5-(trifluoromethyl)pyridin-3-yl]methyl}carbamoyl)-1H-1,2,3-triazol-1-yl]butyl}-1H-1,2,3-triazole-4-carboxamide]
> 7.00 | > 7.00 | O=C(NCc1cncc(C(F)(F)F)c1)c1cn(CC(F)CCc2nnc(C(=O)NCc3cccc(C(F)(F)F)n3)s2)nn1 (centres unmarked) [Example 490, 5-{3-fluoro-4-[4-({[5-(trifluoromethyl)pyridin-3-yl]methyl}carbamoyl)-1H-1,2,3-triazol-1-yl]butyl}-N-{[6-(trifluoromethyl)pyridin-2-yl]methyl}-1,3,4-thiadiazole-2-carboxamide]
> 7.00 | 6.30 to 7.00 | O=C(NCc1cc(OC(F)(F)F)ccc1F)c1cn(CCC(F)Cn2cc(C(=O)N[C@@H](CO)c3ccccc3)nn2)nn1 (stereo partly drawn) [Example 453, 1-{2-fluoro-4-[4-({[2-fluoro-5-(trifluoromethoxy)phenyl]methyl}carbamoyl)-1H-1,2,3-triazol-1-yl]butyl}-N-[(1R)-2-hydroxy-1-phenylethyl]-1H-1,2,3-triazole-4-carboxamide]
> 7.00 | > 7.00 | O=C(NCc1cccc(OC(F)(F)F)c1)c1cn(CCC(F)Cn2cc(C(=O)NCc3cccc(C(F)(F)F)n3)nn2)nn1 (centres unmarked) [Example 436, 1-{2-fluoro-4-[4-({[3-(trifluoromethoxy)phenyl]methyl}carbamoyl)-1H-1,2,3-triazol-1-yl]butyl}-N-{[6-(trifluoromethyl)pyridin-2-yl]methyl}-1H-1,2,3-triazole-4-carboxamide]
> 7.00 | > 7.00 | CNC(=O)c1cn(CCCCc2ccc(NC(=O)Cc3cccc(CNC(=O)OC(C)(C)C)c3)nn2)nn1 [Example 172]
> 7.00 | > 7.00 | CNC(=O)c1cn(CC(F)CCc2nnc(NC(=O)Cc3cc(C(F)(F)F)ccn3)s2)nn1 (centres unmarked) [Example 226, 1-(2-fluoro-4-(5-(2-(4-(trifluoromethyl)pyridin-2-yl)acetamido)-1,3,4-thiadiazol-2-yl)butyl)-N-methyl-1H-1,2,3-triazole-4-carboxamide]
6.30 to 7.00 | 5.30 to 6.30 | O=C(NCc1cccc(OC(F)(F)F)c1)c1cn(CCCCc2nnc(C(=O)NCC3CC3)s2)nn1 [Example 59, N-(cyclopropylmethyl)-5-{4-[4-({[3-(trifluoromethoxy)phenyl]methyl}carbamoyl)-1H-1,2,3-triazol-1-yl]butyl}-1,3,4-thiadiazole-2-carboxamide]
> 7.00 | > 7.00 | O=C(NCc1cccc(Cl)c1)c1cn(CCCCn2cc(C(=O)NCc3cc(C(F)(F)F)ccn3)nn2)nn1 [Example 111, 1-[4-(4-{[(3-chlorophenyl)methyl]carbamoyl}-1H-1,2,3-triazol-1-yl)butyl]-N-{[4-(trifluoromethyl)pyridin-2-yl]methyl}-1H-1,2,3-triazole-4-carboxamide]
6.30 to 7.00 | 6.30 to 7.00 | O=C(NCc1cncc(C(F)(F)F)c1)c1cn(CC(F)CCc2nnc(C(=O)NCC(F)(F)F)s2)nn1 (centres unmarked) [Example 500, 5-{3-fluoro-4-[4-({[5-(trifluoromethyl)pyridin-3-yl]methyl}carbamoyl)-1H-1,2,3-triazol-1-yl]butyl}-N-(2,2,2-trifluoroethyl)-1,3,4-thiadiazole-2-carboxamide]
6.30 to 7.00 | 6.30 to 7.00 | O=C(CN1CCC(F)(F)C1)Nc1cn(CCCCn2cc(C(=O)NCc3cc(Cl)ccc3F)nn2)nn1 [Example 355, N-[(5-chloro-2-fluorophenyl)methyl]-1-(4-{4-[2-(3,3-difluoropyrrolidin-1-yl)acetamido]-1H-1,2,3-triazol-1-yl}butyl)-1H-1,2,3-triazole-4-carboxamide]
